Source: ChEMBL document CHEMBL1150902, “Certain norditerpenoid alkaloids and their cardiovascular action” (1998)
Activity calls are given as the source filed them. The rule behind the calls is not given here.

Key:
Rattus norvegicus [1] = assay: Cardiovascular activity in anesthetized Sprague-Dawley rat assessed as reduction in heart rate at 200 ug/kg, iv; format: functional; set-up: scale not given: the % may be the effect or the level left
Rattus norvegicus [2] = assay: Cardiovascular activity in anesthetized Sprague-Dawley rat assessed as reduction in heart rat at 400 ug/kg, iv; format: functional; set-up: scale not given: the % may be the effect or the level left
Rattus norvegicus [3] = assay: Cardiovascular activity in anesthetized Sprague-Dawley rat assessed as reduction in blood pressure at 400 ug/kg, iv; format: functional; set-up: scale not given: the % may be the effect or the level left
Rattus norvegicus [4] = assay: Cardiovascular activity in anesthetized Sprague-Dawley rat assessed as reduction in blood pressure at 200 ug/kg, iv; format: functional; set-up: scale not given: the % may be the effect or the level left
Canis familiaris [5] = assay: Cardiovascular activity in dog assessed as increase in cardial vagal afferent nerve activity at 150 ug/kg, iv; format: functional, Canis lupus familiaris
Canis familiaris [6] = assay: Cardiovascular activity in dog assessed as decrease in cardial vagal efferent nerve activity at 150 ug/kg, iv; format: functional, Canis lupus familiaris; set-up: scale not given: the % may be the effect or the level left
Rattus norvegicus [7] = assay: Cardiovascular activity in anesthetized Sprague-Dawley rat assessed as induction of cardiac arrhythmia at 200 ug/kg, iv; format: functional, organism-based; conditions: Heart
Rattus norvegicus [8] = assay: Cardiovascular activity in anesthetized Sprague-Dawley rat assessed as induction of cardiac arrhythmia at 400 ug/kg, iv; format: functional, organism-based; conditions: Heart

Row | Compound | Activity (Rattus norvegicus [1]) [%] | Activity (Rattus norvegicus [2]) [%] | Activity (Rattus norvegicus [3]) [%] | Activity (Rattus norvegicus [4]) [%] | Activity (Canis familiaris [5]) [%] | Activity (Canis familiaris [6]) [%] | Activity (Rattus norvegicus [7]) | Activity (Rattus norvegicus [8])
1 | CCN1C[C@]2(COC)CC[C@H](OC)[C@]34C1[C@H](C[C@H]23)[C@H]1C[C@@H](OC)[C@@]2(O)C[C@@H]4[C@@H]1[C@H]2OC(=O)c1ccccc1 | 0 | 3 | 27.6 | 22.6 | – | – | – | –
2 | CCN1C[C@]2(COC)CC[C@H](OC)[C@]34C1[C@H]([C@H](OC)[C@H]23)[C@@]1(OC(=O)c2cccc3cc5ccccc5cc23)C=C[C@@]2(O)C[C@@H]4[C@@H]1[C@H]2OC(=O)c1ccccc1 | 3.7 | 3.8 | 9.2 | 0 | – | – | – | –
3 | CCN1C[C@]2(COC)CC[C@H](OC)[C@]34C1[C@H]([C@H](OC)[C@H]23)[C@@]1(OC(=O)/C=C/c2ccc(O)c(OC)c2)C[C@H](OC)[C@@]2(O)C[C@@H]4[C@@H]1[C@H]2OC(=O)c1ccccc1 | 8.3 | 8.3 | 10.6 | 8.8 | – | – | – | –
4 | CCN1C[C@]2(COC)CC[C@H](OC)[C@@]34C1[C@@H](C1=C[C@H](OC)[C@@]5(O)C[C@@H]3[C@@H]1[C@H]5OC(=O)c1ccccc1)[C@H](OC)[C@H]24 [PYRODELPHININE] | 7.7 | 8.1 | 14.3 | 23.1 | – | – | – | –
5 | CC/C=C\C/C=C\C/C=C\CCCCCCCCC(=O)O[C@]12C[C@H](OC)[C@H]3C[C@H]([C@@H]1[C@H]3OC(=O)c1ccc(OC)c(OC)c1)[C@@]13C4[C@@H]2[C@H](OC)[C@@H]1[C@](COC)(CN4CC)[C@H](O)C[C@@H]3OC | 8.5 | 24.5 | 53.4 | 30.3 | – | – | – | –
6 | CCN1C[C@]2(OC(=O)c3ccccc3N)CC[C@H](OC)[C@]34C1[C@H](C[C@H]23)[C@@]1(OC(C)=O)C[C@H](OC)[C@H]2C[C@@H]4[C@]1(OC(C)=O)[C@H]2OC | 0 | 0 | 0 | 0 | – | – | – | –
7 | CCN1C[C@]2(COC)CC[C@H](OC)[C@]34C1[C@H]([C@H](OC)[C@H]23)[C@@]1(OC(=O)c2ccc(N)cc2)C[C@H](OC)[C@@]2(O)C[C@@H]4[C@@H]1[C@H]2OC(=O)c1ccccc1 | 8.4 | 14.8 | 38 | 42.4 | – | – | – | –
8 | CCN1C[C@@]2(COC)[C@H]3[C@@H](OC)[C@H]4C1[C@]3([C@@H](OC)C[C@H]2OC(C)=O)[C@@H]1C[C@]2(OC(C)=O)[C@@H](OC)C[C@@]4(OC(C)=O)[C@H]1[C@H]2OC(=O)c1ccc(OC)c(OC)c1 | 5.4 | 0 | 0 | 13.2 | – | – | – | –
9 | CCN1C[C@]2(OC(=O)c3ccccc3N)CC[C@H](OC)[C@]34C1[C@H](C[C@H]23)[C@@]1(O)C[C@H](OC)[C@H]2C[C@@H]4[C@]1(O)[C@H]2OC | 12.7 | 14.8 | 57.6 | 27.2 | 40 | 23.5 | – | –
10 | CCN1C[C@@]2(COC)[C@H]3[C@@H](OC)[C@H]4C1[C@]3([C@@H](OC)C[C@H]2OC(C)=O)[C@@H]1C[C@H]2[C@H](OC(=O)c3ccc(OC)c(OC)c3)[C@@H]1[C@]4(OC(C)=O)C[C@@H]2OC | – | – | – | – | – | – | Active | Active
11 | CCN1C[C@]2(OC(=O)c3ccccc3NC(C)=O)CC[C@H](OC)[C@]34C1[C@H](C[C@H]23)[C@@]12C[C@H](OC)[C@H]3C[C@@H]4[C@]1(OCO2)[C@H]3OC | 5.7 | 5.6 | 16.4 | 26 | – | – | – | –
12 | CC[N+]1([O-])C[C@]2(COC)CC[C@H](OC)[C@]34C1[C@H]([C@H](OC)[C@H]23)[C@@]1(OC(C)=O)C[C@H](OC)[C@@]2(OC(C)=O)C[C@@H]4[C@@H]1[C@H]2OC(=O)c1ccccc1 (stereo not given in full) | 3.8 | 8.7 | 13.4 | 0 | – | – | – | –
13 | CCN1C[C@]2(COC)CC[C@H](OC)[C@]34C1[C@H]([C@H](OC)[C@H]23)[C@@]1(OC(=O)c2cccc3cc5ccccc5cc23)C[C@H](OC)[C@@]2(O)C[C@@H]4[C@@H]1[C@H]2OC(=O)c1ccccc1 | 4.2 | 2 | 0 | 20.8 | – | – | – | –
14 | CCCCCCCCCCCCCCCCCC(=O)O[C@]12C[C@H](OC)[C@H]3C[C@H]([C@@H]1[C@H]3OC(=O)c1ccc(OC)c(OC)c1)[C@@]13C4[C@@H]2[C@H](OC)[C@@H]1[C@](COC)(CN4CC)[C@H](O)C[C@@H]3OC | 0 | 24.5 | 53.4 | 15.3 | – | – | – | –
15 | CC[N+]1([O-])C[C@]2(C)CC[C@H](OC)[C@]34C1[C@H]([C@@H](O)[C@H]23)[C@@]1(O)CC[C@H]2C[C@@H]4[C@@H]1C(=O)O2 (stereo not given in full) | 18.8 | 8.9 | 7.6 | 28.1 | – | – | – | –
